Results as given in patent US6794380B2, “Amide derivatives” (AstraZeneca AB, priority 1999, dated 2004).

Tests used:
[1] = biological target: T1, p38α (Homo sapiens, UniProt Q16539); experiment: In vitro enzyme assay, p38α; format: biochemical; settings: read-out: IC50 against p38α
T1 construct: c-myc (N); 6His (N); made in house; host or cells: E. coli (PET vectors)
Method: The ability of compounds of the invention to inhibit the enzyme p38 kinase was assessed. Activity of test compounds against each of the p38α and p38β isoforms of the enzyme was determined. […]
Test compounds were solubilised in DMSO and 10 μl of a 1:10 diluted sample in ‘Kinase Buffer’ was added to a well in a Microtiter plate. […] The precipitated protein was phosphorylated by p38 kinase and test compounds were assessed for their ability to inhibit this phosphorylation. The plates were filtered using a Canberra Packard Unifilter and washed with 2% TCA, dried overnight and counted on a Top Count scintillation counter.
Test compounds were tested initially at a single dose and active compounds were retested to allow IC50 values to be determined.

[2] = system: TNFα production in human whole blood; experiment: Human Whole Blood test: inhibition of LPS-stimulated TNFα production; format: cell-based
Method: The ability of the compounds of this invention to inhibit TNFα production was also assessed in a human whole blood assay. Human whole blood secretes TNFα when stimulated with LPS. This property of blood forms the basis of an assay which is used as a secondary test for compounds which profile as active in the PBMC test.
Heparinised (10 units/ml) human blood was obtained from volunteers. 160 μl whole blood were added to 96 well round-bottom plates (Corning 25850). Compounds were solubilised and serially diluted in RPMI 1640 medium (Gibco) supplemented with 50 units/ml penicillin, 50 μg/ml streptomycin and 2 mM glutamine, as detailed above. 20 μl of each test concentration was added to appropriate wells (triplicate cultures). 20 μl of RPMI 1640 medium supplemented with antibiotics and glutamine was added to control wells. Plates were incubated for 30 minutes at 37° C. (humidified incubator), prior to addition of 20 μl LPS (final concentration 10 μg/ml). RPMI 1640 medium was added to control wells. Six “LPS alone” and four “medium alone” controls were included on each plate. A known TNFα synthesis/secretion inhibitor was included in each test. Plates were incubated for 6 hours at 37° C. (humidified incubator). […] TNFα levels were measured by ELISA (see WO92/10190 and Current Protocols in Molecular Biology, vol 2 by Frederick M. Ausbel et al., John Wiley and Sons Inc.). […]

T1 sequence (Q16539 whole entry): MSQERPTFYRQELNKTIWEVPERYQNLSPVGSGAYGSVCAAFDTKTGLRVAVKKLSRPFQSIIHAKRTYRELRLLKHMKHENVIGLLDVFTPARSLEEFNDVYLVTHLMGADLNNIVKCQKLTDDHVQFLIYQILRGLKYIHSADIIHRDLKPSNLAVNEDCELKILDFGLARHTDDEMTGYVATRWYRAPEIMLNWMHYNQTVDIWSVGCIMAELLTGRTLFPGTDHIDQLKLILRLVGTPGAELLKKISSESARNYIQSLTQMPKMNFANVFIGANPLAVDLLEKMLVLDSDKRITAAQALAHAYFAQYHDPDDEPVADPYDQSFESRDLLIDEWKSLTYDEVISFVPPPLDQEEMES

- IC50 [1]: ~50 nM
- IC50 [2]: ~5000 nM
Compound: CN(C)CCCN(C)c1ccc(NC(=O)c2cc(NC(=O)c3ccnc(N4CCOCC4)c3)ccc2Cl)cn1 [N-{6-[N-(3-dimethylaminopropyl)-N-methylamino]pyrid-3-yl}-2-chloro-5-(2-morpholinopyrid-4-ylcarbonylamino)benzamide]
